Laboratory results published in PubChem BioAssay AID652090 (Broad Institute, 2013).

Legend:
Assay in all cases: cellular target proteins captured by immobilized compound – cell lysate, INS-1E, SILAC competition, mass spectrometry, mechanism study for beta-cell protection project, late-stage follow-up (AID 652090)
[1] = system: Tbc1d15; conditions: INS-1E SILAC affinity pulldown, competition MS ratio
[2] = biological target: Cand2 (UniProt Q9R0L4); conditions: INS-1E SILAC affinity pulldown, competition MS ratio, stronger effect = higher value
[3] = system: Blvrb; conditions: INS-1E SILAC affinity pulldown, competition MS ratio
[4] = biological target: Retsat (UniProt Q8VHE9); conditions: INS-1E SILAC affinity pulldown, competition MS ratio, stronger effect = higher value
[5] = system: Ahcy; conditions: INS-1E SILAC affinity pulldown, competition MS ratio, enrichment significance, stronger effect = lower value
[6] = biological target: Lrpprc (UniProt Q5SGE0); conditions: INS-1E SILAC affinity pulldown, competition MS ratio, stronger effect = higher value
[7] = system: Cand2; conditions: INS-1E SILAC affinity pulldown, competition MS ratio, enrichment significance, stronger effect = lower value
[8] = biological target: Xpo1 (UniProt Q80U96); conditions: INS-1E SILAC affinity pulldown, competition MS ratio, stronger effect = higher value
[9] = system: Usp9x; conditions: INS-1E SILAC affinity pulldown, competition MS ratio
[10] = system: Ipo9; conditions: INS-1E SILAC affinity pulldown, competition MS ratio
[11] = biological target: Glyceraldehyde-3-phosphate dehydrogenase (Rattus norvegicus) (UniProt P04797); conditions: INS-1E SILAC affinity pulldown, competition MS ratio; Gapdh; stronger effect = higher value
[12] = system: Timm44; conditions: INS-1E SILAC affinity pulldown, competition MS ratio, enrichment significance, stronger effect = lower value
[13] = system: Gapdh; conditions: INS-1E SILAC affinity pulldown, competition MS ratio, enrichment significance, stronger effect = lower value
[14] = system: Mcm6; conditions: INS-1E SILAC affinity pulldown, competition MS ratio, enrichment significance, stronger effect = lower value
[15] = system: Cand1; conditions: INS-1E SILAC affinity pulldown, competition MS ratio
[16] = biological target: Adenosylhomocysteinase (Rattus norvegicus) (UniProt P10760); conditions: INS-1E SILAC affinity pulldown, competition MS ratio; Ahcy; stronger effect = higher value
[17] = system: Retsat; conditions: INS-1E SILAC affinity pulldown, competition MS ratio, enrichment significance, stronger effect = lower value
[18] = system: Ap3b2; conditions: INS-1E SILAC affinity pulldown, competition MS ratio
[19] = system: LOC303448; conditions: INS-1E SILAC affinity pulldown, competition MS ratio
[20] = system: Lrpprc; conditions: INS-1E SILAC affinity pulldown, competition MS ratio, enrichment significance, stronger effect = lower value
[21] = system: RGD1309903; conditions: INS-1E SILAC affinity pulldown, competition MS ratio
[22] = biological target: Timm44 (UniProt O35094); conditions: INS-1E SILAC affinity pulldown, competition MS ratio, stronger effect = higher value
[23] = system: Ipo4; conditions: INS-1E SILAC affinity pulldown, competition MS ratio
[24] = biological target: Mcm6 (UniProt Q62724); conditions: INS-1E SILAC affinity pulldown, competition MS ratio, stronger effect = higher value
[25] = system: Xpo1; conditions: INS-1E SILAC affinity pulldown, competition MS ratio, enrichment significance, stronger effect = lower value
[26] = enrichment significance, stronger effect = lower value

Chain of Glyceraldehyde-3-phosphate dehydrogenase (Rattus norvegicus) (P04797 whole entry, looked up): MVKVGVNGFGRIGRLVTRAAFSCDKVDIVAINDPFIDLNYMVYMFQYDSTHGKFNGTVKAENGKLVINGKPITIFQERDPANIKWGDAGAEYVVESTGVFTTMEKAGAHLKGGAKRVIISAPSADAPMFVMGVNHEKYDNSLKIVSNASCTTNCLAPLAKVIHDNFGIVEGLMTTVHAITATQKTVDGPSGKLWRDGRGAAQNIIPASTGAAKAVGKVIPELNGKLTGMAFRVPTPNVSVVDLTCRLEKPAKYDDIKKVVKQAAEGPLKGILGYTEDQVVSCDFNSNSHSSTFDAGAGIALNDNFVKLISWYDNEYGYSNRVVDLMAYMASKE
Chain of Retsat (UniProt Q8VHE9) (Q8VHE9 whole entry, looked up): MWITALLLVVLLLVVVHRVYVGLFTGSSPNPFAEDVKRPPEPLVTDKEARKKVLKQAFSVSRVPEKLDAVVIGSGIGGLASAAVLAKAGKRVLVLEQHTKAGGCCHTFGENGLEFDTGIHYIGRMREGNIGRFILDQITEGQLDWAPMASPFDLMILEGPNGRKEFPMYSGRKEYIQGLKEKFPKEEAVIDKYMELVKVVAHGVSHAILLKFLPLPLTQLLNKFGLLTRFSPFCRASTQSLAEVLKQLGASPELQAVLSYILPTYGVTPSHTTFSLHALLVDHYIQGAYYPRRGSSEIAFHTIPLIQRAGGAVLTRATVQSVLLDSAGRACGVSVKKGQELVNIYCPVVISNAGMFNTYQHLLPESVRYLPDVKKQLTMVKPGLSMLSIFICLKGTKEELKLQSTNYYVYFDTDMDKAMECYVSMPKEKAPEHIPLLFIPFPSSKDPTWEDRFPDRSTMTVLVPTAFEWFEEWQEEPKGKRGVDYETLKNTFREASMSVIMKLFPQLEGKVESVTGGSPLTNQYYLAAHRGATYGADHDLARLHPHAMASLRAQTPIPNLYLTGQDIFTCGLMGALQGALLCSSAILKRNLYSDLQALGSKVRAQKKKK
Chain of Cand2 (UniProt Q9R0L4) (Q9R0L4 whole entry, looked up): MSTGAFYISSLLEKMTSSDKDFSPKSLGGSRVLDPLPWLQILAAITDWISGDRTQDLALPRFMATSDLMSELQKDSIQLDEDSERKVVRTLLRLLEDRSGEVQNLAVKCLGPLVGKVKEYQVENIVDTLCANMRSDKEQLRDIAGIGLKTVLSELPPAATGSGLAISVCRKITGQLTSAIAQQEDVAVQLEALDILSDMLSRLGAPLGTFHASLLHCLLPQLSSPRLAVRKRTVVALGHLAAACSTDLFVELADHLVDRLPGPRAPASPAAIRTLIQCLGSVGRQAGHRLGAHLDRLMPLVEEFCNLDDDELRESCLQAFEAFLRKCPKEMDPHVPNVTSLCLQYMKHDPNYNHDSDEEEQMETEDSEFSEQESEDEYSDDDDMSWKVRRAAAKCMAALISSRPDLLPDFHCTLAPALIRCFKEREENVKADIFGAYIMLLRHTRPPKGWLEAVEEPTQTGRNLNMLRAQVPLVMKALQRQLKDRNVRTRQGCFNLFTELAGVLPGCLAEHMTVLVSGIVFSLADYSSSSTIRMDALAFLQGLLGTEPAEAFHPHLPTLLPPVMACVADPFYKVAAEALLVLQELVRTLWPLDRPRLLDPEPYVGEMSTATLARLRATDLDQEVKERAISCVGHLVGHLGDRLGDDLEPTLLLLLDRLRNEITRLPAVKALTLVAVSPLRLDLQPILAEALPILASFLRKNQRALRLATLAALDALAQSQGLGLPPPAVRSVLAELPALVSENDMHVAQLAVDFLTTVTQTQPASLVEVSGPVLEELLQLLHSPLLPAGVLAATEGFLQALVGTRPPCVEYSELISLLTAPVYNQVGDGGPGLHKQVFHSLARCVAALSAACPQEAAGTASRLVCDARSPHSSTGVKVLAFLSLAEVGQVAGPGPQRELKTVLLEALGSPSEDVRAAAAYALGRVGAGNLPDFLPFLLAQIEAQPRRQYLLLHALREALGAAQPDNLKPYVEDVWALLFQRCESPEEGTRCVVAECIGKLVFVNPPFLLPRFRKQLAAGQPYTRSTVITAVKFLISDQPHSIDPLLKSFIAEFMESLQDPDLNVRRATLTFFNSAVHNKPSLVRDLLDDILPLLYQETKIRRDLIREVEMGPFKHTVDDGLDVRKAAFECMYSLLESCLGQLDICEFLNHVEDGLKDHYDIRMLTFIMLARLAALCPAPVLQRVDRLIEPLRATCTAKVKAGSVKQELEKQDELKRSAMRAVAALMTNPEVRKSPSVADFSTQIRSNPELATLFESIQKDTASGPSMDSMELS
Chain of Adenosylhomocysteinase (Rattus norvegicus) (P10760 whole entry, looked up): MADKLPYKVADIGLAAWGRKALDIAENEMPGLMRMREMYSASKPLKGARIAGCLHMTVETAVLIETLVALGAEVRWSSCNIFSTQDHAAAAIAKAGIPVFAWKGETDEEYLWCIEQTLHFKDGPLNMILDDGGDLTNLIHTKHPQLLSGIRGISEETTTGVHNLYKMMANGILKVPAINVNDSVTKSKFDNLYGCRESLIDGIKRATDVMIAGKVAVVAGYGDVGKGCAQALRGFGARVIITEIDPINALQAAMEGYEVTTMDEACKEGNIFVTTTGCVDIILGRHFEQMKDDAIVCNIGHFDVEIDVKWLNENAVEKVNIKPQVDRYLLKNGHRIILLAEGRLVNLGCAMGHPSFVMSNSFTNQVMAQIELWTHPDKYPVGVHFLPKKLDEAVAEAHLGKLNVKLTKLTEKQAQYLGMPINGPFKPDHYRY
Chain of Timm44 (UniProt O35094) (O35094 whole entry, looked up): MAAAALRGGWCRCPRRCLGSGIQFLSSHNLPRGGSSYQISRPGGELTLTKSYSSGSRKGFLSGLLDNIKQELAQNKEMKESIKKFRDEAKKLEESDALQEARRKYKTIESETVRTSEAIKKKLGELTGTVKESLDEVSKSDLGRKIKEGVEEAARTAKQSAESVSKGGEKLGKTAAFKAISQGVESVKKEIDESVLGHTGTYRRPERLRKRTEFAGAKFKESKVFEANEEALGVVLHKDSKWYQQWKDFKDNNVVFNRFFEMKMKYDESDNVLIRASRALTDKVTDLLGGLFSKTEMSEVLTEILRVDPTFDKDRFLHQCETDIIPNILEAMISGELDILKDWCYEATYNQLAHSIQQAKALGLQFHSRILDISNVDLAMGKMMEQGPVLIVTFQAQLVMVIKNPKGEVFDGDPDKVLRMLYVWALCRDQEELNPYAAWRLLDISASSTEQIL
Chain of Xpo1 (UniProt Q80U96) (Q80U96 whole entry, looked up): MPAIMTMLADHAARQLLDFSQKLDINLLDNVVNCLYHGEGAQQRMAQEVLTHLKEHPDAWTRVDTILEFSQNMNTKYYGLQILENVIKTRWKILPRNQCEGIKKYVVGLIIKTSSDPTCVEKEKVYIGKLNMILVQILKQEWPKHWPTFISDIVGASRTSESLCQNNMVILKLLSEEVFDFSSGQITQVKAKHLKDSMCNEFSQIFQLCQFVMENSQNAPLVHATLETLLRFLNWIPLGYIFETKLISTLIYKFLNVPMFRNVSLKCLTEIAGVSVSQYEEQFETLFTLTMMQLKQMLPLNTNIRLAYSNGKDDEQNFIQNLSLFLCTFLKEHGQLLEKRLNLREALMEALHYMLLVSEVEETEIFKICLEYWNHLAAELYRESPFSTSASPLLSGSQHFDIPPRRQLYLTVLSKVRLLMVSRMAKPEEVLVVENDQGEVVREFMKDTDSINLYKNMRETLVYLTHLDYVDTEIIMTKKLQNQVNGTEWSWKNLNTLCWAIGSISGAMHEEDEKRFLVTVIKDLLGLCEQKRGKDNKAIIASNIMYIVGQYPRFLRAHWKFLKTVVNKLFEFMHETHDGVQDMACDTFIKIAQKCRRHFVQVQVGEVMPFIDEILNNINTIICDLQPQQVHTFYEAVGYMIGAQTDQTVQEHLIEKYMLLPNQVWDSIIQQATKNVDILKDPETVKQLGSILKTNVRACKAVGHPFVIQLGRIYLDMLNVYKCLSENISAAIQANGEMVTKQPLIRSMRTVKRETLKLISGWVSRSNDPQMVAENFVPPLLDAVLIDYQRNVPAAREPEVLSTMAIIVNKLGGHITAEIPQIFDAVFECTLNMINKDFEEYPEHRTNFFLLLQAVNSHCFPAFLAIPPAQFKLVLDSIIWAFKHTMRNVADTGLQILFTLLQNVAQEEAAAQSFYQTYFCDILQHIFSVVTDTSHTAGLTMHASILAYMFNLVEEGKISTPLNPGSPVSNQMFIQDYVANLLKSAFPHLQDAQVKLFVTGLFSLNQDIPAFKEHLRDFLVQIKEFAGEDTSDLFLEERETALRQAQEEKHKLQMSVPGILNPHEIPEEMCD
Chain of Mcm6 (UniProt Q62724) (Q62724 whole entry, looked up): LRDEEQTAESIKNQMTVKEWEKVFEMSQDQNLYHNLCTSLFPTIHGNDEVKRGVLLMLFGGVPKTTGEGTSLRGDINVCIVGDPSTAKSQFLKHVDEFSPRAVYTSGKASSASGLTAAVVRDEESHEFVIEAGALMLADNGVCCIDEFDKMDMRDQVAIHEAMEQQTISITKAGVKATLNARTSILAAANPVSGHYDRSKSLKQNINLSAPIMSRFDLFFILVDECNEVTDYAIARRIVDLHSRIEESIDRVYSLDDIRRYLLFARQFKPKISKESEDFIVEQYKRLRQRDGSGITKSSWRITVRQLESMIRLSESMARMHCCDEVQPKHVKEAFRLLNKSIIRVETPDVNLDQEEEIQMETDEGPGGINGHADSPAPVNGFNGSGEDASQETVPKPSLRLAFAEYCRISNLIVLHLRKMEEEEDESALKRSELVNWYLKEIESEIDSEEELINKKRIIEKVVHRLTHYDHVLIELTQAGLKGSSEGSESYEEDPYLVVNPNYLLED

log2 SILAC competition ratio [2]: 0.496
log2 SILAC competition ratio [4]: 0.58
log2 SILAC competition ratio [6]: 0.64
log2 SILAC competition ratio [8]: 0.56
log2 SILAC competition ratio [11]: 0.72
log2 SILAC competition ratio [16]: 0.72
log2 SILAC competition ratio [22]: 0.52
log2 SILAC competition ratio [24]: 1.63
Compound: C[C@@H]1CN([C@@H](C)CO)C(=O)c2cccc(NC(=O)Nc3cccc4ccccc34)c2O[C@H]1CN(C)S(=O)(=O)c1ccc2c(c1)OCCO2
p-value [1, 26]: 6.97e-05
log2 SILAC competition ratio ([1]; stronger effect = higher value): 0.72
p-value [3, 26]: 7.19e-23
log2 SILAC competition ratio ([3]; stronger effect = higher value): 1.52
p-value [5]: 8.65e-05
p-value [7]: 0.0511
p-value [9, 26]: 2.07e-09
log2 SILAC competition ratio ([9]; stronger effect = higher value): 0.98
p-value [10, 26]: 0.00514
log2 SILAC competition ratio ([10]; stronger effect = higher value): 0.58
p-value [12]: 0.0266
p-value [13]: 7.85e-05
p-value [14]: 2.29e-26
p-value [15, 26]: 7.49e-06
log2 SILAC competition ratio ([15]; stronger effect = higher value): 0.78
p-value [17]: 0.00538
p-value [18, 26]: 1.01e-06
log2 SILAC competition ratio ([18]; stronger effect = higher value): 0.84
p-value [19, 26]: 3.33e-05
log2 SILAC competition ratio ([19]; stronger effect = higher value): 0.74
p-value [20]: 0.00102
p-value [21, 26]: 0.000418
log2 SILAC competition ratio ([21]; stronger effect = higher value): 0.67
p-value [23, 26]: 0.000164
log2 SILAC competition ratio ([23]; stronger effect = higher value): 0.7
p-value [25]: 0.0109
